{"source": "patent US4345938A", "about": "“Herbicidal 2-haloacetanilides” (Monsanto Company, priority 1980, dated 1982); as to Rating, Hemp Sesbania: ranges in brackets are in %; as to Rating, Panicum Spp.: ranges in brackets are in %; as to Rating, Rice: ranges in brackets are in %; as to Rating, Soybean: ranges in brackets are in %; as to Rating, Wheat: ranges in brackets are in %; as to Rating, Yellow Nutsedge: ranges in brackets are in %", "format_in_all_cases": "in vivo", "key": {"[1]": {"tested_on": "Morningglory", "assay": "Pre-emergent herbicidal test, Morningglory; also: ranges in brackets are in %", "description": "(§1) A good grade of top soil is placed in aluminum pans and compacted to a depth of three-eights to one-half inch from the top of the pan. On the top of the soil is placed a number of seeds or vegetative propagules of various plant species. The soil required to level fill the pans after seeding or adding vegetative propagules is weighted into a pan. The soil and a known amount of the active ingredient applied in a solvent or as a wettable powder suspension are thoroughly mixed, and used to cover the prepared pans. After treatment, the pans are moved into a greenhouse bench where they are watered by subirrigation as needed to give adequate moisture for germination and growth.\n(§2) Approximately 2 weeks after seeding and treating, the plants were observed and the results recorded. The herbicidal rating was obtained by means of a fixed scale based on the percent injury of each plant species. The ratings are defined as follows: […]"}, "[2]": {"tested_on": "Yellow Nutsedge", "assay": "Pre-emergent herbicidal test, Yellow Nutsedge", "details": "Table I", "description": "as §1, §2"}, "[3]": {"tested_on": "Soybean", "assay": "Pre-emergent herbicidal test, Soybean", "details": "Table II", "description": "as §1, §2\n(§3) The compounds were further tested by utilizing the above procedure on the following plant species: […]"}, "[4]": {"tested_on": "Wheat", "assay": "Pre-emergent herbicidal test, Wheat", "details": "Table II", "description": "as §1, §2, §3"}, "[5]": {"tested_on": "Rice", "assay": "Pre-emergent herbicidal test, Rice", "details": "Table II", "description": "as §1, §2, §3"}, "[6]": {"tested_on": "Hemp Sesbania", "assay": "Pre-emergent herbicidal test, Hemp Sesbania", "details": "Table II", "description": "as §1, §2, §3"}, "[7]": {"tested_on": "Panicum Spp.", "assay": "Pre-emergent herbicidal test, Panicum Spp.", "details": "Table II", "description": "as §1, §2, §3"}, "[8]": {"tested_on": "Monochoria vaginalis", "assay": "Greenhouse transplant rice test, MV", "details": "Pontederia vaginalis, about 3 WAT, read-out: Percent Inhibition, MV", "description": "The test procedure used in this greenhouse test is as follows: Ray silt loam top soil containing about 0.05% by weight of krillium and sifted through a […] screen is fumigated about 5-10 days prior to use. Pots are then filled with said Ray silt loam soil to a level to allow for a 1 in. (2.54 cm) flooding depth. Rice plants (Bluebelle) of 2 to 3 weeks age are transplanted to the pots and bulbs or seeds of the test weeds also planted in the pots. The pots are then flooded and the test chemical applied to the surface of the flood water. The flood water is reduced to allow for germination of the Echinochloa crus-galli (barnyardgrass) seed and subsequently reflooded and maintained in that condition. Observations of percent inhibition using a scale of 0-100% are made about 3 weeks after transplant (WAT).\nThe test data in Table III for all compounds was obtained under identical test conditions. The weeds used in the tests herein have the following abbreviations in the tables: Echinochloa crus-galli (EC), Monochloria vaginalis (MV), Cyperus Serotinus (CS), Eleocharis Kuroguwai (EK) and Sagittaria trifolia (ST)."}, "[9]": {"tested_on": "Echinochloa crus-galli", "assay": "Upland seeded rice greenhouse test, barnyardgrass", "method": "In another comparative test in the greenhouse, the compound of Example 2 and Compound B were tested in Upland seeded rice. […] In contrast, Compound A, (a commercial rice herbicide), required 0.14 kg/ha (0.125 lb/A) to selectively control the same weed with rice safety also maintained at 1.12 kg/ha resulting in a selectivity factor of at least 8, i.e., less than one-half that of the compound of Example 2."}}}
{"smiles": "CCCCOc1cccc(CC)c1N(CC)C(=O)CCl", "note": "[Example 2, N-ethyl-2'-n-butoxy-6'-ethyl-2-chloroacetanilide]", "values": [{"measurement": "Rating, Morningglory", "setting": "[1]; Table I, 5.6 kg/h", "value": "0 (0-24)"}, {"measurement": "Rating, Morningglory", "setting": "[1]; Table I, 11.2 kg/h", "value": "2 (50-74)"}, {"measurement": "Rating, Morningglory", "setting": "[1]; Table II, 0.01 kg/h", "value": "0 (0-24)"}, {"measurement": "Rating, Morningglory", "setting": "[1]; Table II, 0.06 kg/h", "value": "0 (0-24)"}, {"measurement": "Rating, Morningglory", "setting": "[1]; Table II, 0.28 kg/h", "value": "0 (0-24)"}, {"measurement": "Rating, Morningglory", "setting": "[1]; Table II, 1.12 kg/h", "value": "0 (0-24)"}, {"measurement": "Rating, Morningglory", "setting": "[1]; Table II, 5.6 kg/h", "value": "1 (25-49)"}, {"measurement": "Rating, Yellow Nutsedge", "setting": "[2]; 5.6 kg/h", "value": "3 (75-100)"}, {"measurement": "Rating, Yellow Nutsedge", "setting": "[2]; 11.2 kg/h", "value": "3 (75-100)"}, {"measurement": "Rating, Soybean", "setting": "[3]; 0.01 kg/h", "value": "0 (0-24)"}, {"measurement": "Rating, Soybean", "setting": "[3]; 0.06 kg/h", "value": "0 (0-24)"}, {"measurement": "Rating, Soybean", "setting": "[3]; 0.28 kg/h", "value": "0 (0-24)"}, {"measurement": "Rating, Soybean", "setting": "[3]; 1.12 kg/h", "value": "0 (0-24)"}, {"measurement": "Rating, Soybean", "setting": "[3]; 5.6 kg/h", "value": "1 (25-49)"}, {"measurement": "Rating, Wheat", "setting": "[4]; 0.01 kg/h", "value": "0 (0-24)"}, {"measurement": "Rating, Wheat", "setting": "[4]; 0.06 kg/h", "value": "0 (0-24)"}, {"measurement": "Rating, Wheat", "setting": "[4]; 0.28 kg/h", "value": "1 (25-49)"}, {"measurement": "Rating, Wheat", "setting": "[4]; 1.12 kg/h", "value": "2 (50-74)"}, {"measurement": "Rating, Wheat", "setting": "[4]; 5.6 kg/h", "value": "3 (75-100)"}, {"measurement": "Rating, Rice", "setting": "[5]; 0.01 kg/h", "value": "0 (0-24)"}, {"measurement": "Rating, Rice", "setting": "[5]; 0.06 kg/h", "value": "0 (0-24)"}, {"measurement": "Rating, Rice", "setting": "[5]; 0.28 kg/h", "value": "1 (25-49)"}, {"measurement": "Rating, Rice", "setting": "[5]; 1.12 kg/h", "value": "3 (75-100)"}, {"measurement": "Rating, Rice", "setting": "[5]; 5.6 kg/h", "value": "3 (75-100)"}, {"measurement": "Rating, Hemp Sesbania", "setting": "[6]; 0.01 kg/h", "value": "0 (0-24)"}, {"measurement": "Rating, Hemp Sesbania", "setting": "[6]; 0.06 kg/h", "value": "0 (0-24)"}, {"measurement": "Rating, Hemp Sesbania", "setting": "[6]; 0.28 kg/h", "value": "0 (0-24)"}, {"measurement": "Rating, Hemp Sesbania", "setting": "[6]; 1.12 kg/h", "value": "2 (50-74)"}, {"measurement": "Rating, Hemp Sesbania", "setting": "[6]; 5.6 kg/h", "value": "2 (50-74)"}, {"measurement": "Rating, Panicum Spp.", "setting": "[7]; 0.01 kg/h", "value": "0 (0-24)"}, {"measurement": "Rating, Panicum Spp.", "setting": "[7]; 0.06 kg/h", "value": "1 (25-49)"}, {"measurement": "Rating, Panicum Spp.", "setting": "[7]; 0.28 kg/h", "value": "3 (75-100)"}, {"measurement": "Rating, Panicum Spp.", "setting": "[7]; 1.12 kg/h", "value": "3 (75-100)"}, {"measurement": "Rating, Panicum Spp.", "setting": "[7]; 5.6 kg/h", "value": "3 (75-100)"}, {"measurement": "inhibition at 280 g/ha", "setting": "[8]; 0.28 Kg/Ha", "value": 100, "unit": "%"}, {"measurement": "inhibition at 560 g/ha", "setting": "[8]; 0.56 Kg/Ha", "value": 100, "unit": "%"}, {"measurement": "inhibition at 1120 g/ha", "setting": "[8]; 1.12 Kg/Ha", "value": 100, "unit": "%"}, {"measurement": "inhibition at 2240 g/ha", "setting": "[8]; 2.24 Kg/Ha", "value": 100, "unit": "%"}, {"measurement": "rate for selective control of Echinochloa crus-galli", "setting": "[9]; Upland seeded rice, greenhouse", "value": 0.064, "unit": "kg/ha"}, {"measurement": "selectivity factor, Echinochloa crus-galli in Upland seeded rice", "setting": "[9]; Upland seeded rice, greenhouse", "value": "at least 17.5"}, {"measurement": "control of barnyardgrass", "setting": "[9]; upland-seeded rice test, 0.0087 kg/ha (0.0078 lb/A)", "value": 20, "unit": "%"}]}
